From ChEMBL document CHEMBL4350991, “Design, synthesis, and biological evaluation of rutacecarpine derivatives as multitarget-directed ligands for the treatment of Alzheimer's disease” (Eur J Med Chem, 2019)
Calls of active or inactive are those of the source. No cut-off for these calls is given here.

Experiments:
[1] = tested on: PC-12; test: cells; assay type: functional; settings: Rattus norvegicus
[2] = tested on: SH-SY5Y; test: Neuroprotective activity against H2O2-induced cytotoxicity in human SH-SY5Y cells assessed as cell viability at 10 uM pretreated for 3 hrs followed by H2O2 challenge measured after 24 hrs by MTT assay (reference value: 42.69 +/- 0.8%); assay type: functional; settings: read-out: Activity
[3] = tested on: SH-SY5Y; test: Neuro-antioxidant activity against H2O2-induced oxidative stress in human SH-SY5Y cells assessed as intracellular ROS generation at 1 uM preincubated for 6 hrs followed by H2O2 challenge for 24 hrs by DCFH-DA staining-based fluorescence assay (reference value: 119.61 +/- 5.269%); assay type: functional
[4] = Metal chelating activity assessed as compound-Cu2+ complex formation at 20 uM in presence of CuCl2 after 1 hr by UV-visible spectrophotometric analysis
[5] = Metal chelating activity assessed as compound-Ca2+ complex formation at 20 uM in presence of CaCl2 after 1 hr by UV-visible spectrophotometric analysis
[6] = tested on: PC-12; test: cells; assay type: functional; settings: Rattus norvegicus; remark: listed apart in the source
[7] = tested on: PC-12; test: Neuroprotective activity against H2O2 induced cytotoxicity in rat PC12 cells assessed as increase in cell viability pretreated for 3 hrs followed by H2O2 challenge measured after 24 hrs by MTT assay; assay type: functional, cell-based
[8] = target: Acetylcholinesterase (Electrophorus electricus, UniProt O42275); assay type: ADME
Chain of Acetylcholinesterase (O42275 whole entry): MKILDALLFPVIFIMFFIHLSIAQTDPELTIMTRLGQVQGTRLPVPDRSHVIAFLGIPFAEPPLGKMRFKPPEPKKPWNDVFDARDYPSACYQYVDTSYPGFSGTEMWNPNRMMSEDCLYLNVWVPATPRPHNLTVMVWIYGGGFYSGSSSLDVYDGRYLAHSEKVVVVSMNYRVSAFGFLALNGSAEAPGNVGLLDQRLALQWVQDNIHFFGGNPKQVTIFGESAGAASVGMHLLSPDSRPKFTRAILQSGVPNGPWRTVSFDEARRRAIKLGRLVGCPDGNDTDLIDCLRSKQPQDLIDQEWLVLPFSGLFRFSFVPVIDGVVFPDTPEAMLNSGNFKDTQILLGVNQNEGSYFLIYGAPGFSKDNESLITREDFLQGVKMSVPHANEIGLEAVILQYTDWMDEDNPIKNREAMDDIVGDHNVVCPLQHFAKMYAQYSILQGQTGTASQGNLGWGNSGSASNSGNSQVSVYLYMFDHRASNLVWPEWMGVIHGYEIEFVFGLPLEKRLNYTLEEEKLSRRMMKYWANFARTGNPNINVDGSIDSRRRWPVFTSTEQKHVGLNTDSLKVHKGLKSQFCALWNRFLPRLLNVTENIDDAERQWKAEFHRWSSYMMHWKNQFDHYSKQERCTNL
Description: Inhibition of electric eel AChE using acetylthiocholine iodide as substrate preincubated for 30 mins followed by substrate addition and measured after 30 mins by Ellman's method

[9] = target: Cholinesterase (Equus caballus, UniProt P81908)
Chain of Cholinesterase (P81908 whole entry): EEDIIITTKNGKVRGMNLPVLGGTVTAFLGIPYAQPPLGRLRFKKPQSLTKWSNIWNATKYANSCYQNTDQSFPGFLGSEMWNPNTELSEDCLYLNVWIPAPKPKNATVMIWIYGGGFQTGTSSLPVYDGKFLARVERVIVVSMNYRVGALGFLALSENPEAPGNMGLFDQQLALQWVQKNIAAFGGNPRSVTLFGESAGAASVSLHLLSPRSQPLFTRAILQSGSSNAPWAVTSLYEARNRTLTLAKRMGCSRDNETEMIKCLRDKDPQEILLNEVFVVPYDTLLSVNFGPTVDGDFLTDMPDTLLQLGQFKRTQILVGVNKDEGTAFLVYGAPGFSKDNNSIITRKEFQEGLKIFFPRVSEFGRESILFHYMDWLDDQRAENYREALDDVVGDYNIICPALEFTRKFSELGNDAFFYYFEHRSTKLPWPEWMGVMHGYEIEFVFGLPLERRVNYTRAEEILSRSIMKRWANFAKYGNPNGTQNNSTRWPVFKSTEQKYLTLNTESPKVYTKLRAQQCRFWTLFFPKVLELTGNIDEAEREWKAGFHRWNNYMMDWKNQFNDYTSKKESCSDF
Description: Inhibition of equine serum BuChE using S-butyrylthiocholine iodide as substrate preincubated with enzyme for 30 mins followed by substrate addition and measured after 30 mins by Ellman's method

[10] = target: Cholinesterase (Equus caballus) (UniProt P81908); test: Mixed-type inhibition of equine serum BuChE up to 8 uM using varying levels of S-butyrylthiocholine iodide as substrate preincubated for 30 mins followed by substrate addition and measured after 30 mins by Lineweaver-Burk plot analysis
Chain of Cholinesterase (Equus caballus) (P81908 whole entry): as above

[11] = Metal chelating activity assessed as compound-Mg2+ complex formation at 20 uM in presence of MgCl2 after 1 hr by UV-visible spectrophotometric analysis
[12] = target: Amyloid-beta precursor protein (Homo sapiens) (UniProt P05067); test: Inhibition of self-mediated amyloid beta (1 to 42) (unknown origin) aggregation assessed as short and thin fibril formation at 100 uM incubated for 48 hrs by transmission electron microscopic method
Chain of Amyloid-beta precursor protein (Homo sapiens) (P05067 whole entry): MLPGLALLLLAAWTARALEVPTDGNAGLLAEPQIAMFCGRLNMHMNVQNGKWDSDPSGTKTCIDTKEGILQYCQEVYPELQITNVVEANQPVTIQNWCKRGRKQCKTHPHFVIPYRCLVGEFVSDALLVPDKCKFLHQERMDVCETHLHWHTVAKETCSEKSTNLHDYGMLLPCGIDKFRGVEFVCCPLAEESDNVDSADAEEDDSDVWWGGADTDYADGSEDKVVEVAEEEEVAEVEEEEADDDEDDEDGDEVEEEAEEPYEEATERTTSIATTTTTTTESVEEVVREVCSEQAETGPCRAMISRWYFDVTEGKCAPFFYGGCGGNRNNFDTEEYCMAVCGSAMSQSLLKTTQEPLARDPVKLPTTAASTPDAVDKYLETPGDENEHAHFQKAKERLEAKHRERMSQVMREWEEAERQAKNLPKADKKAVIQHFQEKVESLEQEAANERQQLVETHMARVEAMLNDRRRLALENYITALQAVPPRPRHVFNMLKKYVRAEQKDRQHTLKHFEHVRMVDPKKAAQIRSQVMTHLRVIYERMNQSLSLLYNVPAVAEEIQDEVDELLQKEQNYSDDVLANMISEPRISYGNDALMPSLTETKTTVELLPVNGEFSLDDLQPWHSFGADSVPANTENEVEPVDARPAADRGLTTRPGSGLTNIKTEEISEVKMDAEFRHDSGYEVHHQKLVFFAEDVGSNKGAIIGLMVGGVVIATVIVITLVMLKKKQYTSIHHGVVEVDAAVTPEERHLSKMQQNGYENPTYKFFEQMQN

[13] = Metal chelating activity assessed as compound-Al3+ complex formation at 20 uM in presence of AlCl3 after 1 hr by UV-visible spectrophotometric analysis
[14] = tested on: SH-SY5Y; test: Neuro-antioxidant activity against H2O2-induced oxidative stress in human SH-SY5Y cells assessed as intracellular ROS generation at 5 uM preincubated for 6 hrs followed by H2O2 challenge for 24 hrs by DCFH-DA staining-based fluorescence assay (reference value: 119.61 +/- 5.269%); assay type: functional
[15] = tested on: SH-SY5Y; test: Neuroprotective activity against H2O2-induced cytotoxicity in human SH-SY5Y cells assessed as cell viability at 30 uM pretreated for 3 hrs followed by H2O2 challenge measured after 24 hrs by MTT assay (reference value: 42.69 +/- 0.8%); assay type: functional; settings: read-out: Activity
[16] = tested on: SH-SY5Y; test: Neuroprotective activity against amyloid beta (1 to 42 residues) induced cytotoxicity in human SH-SY5Y cells assessed as cell viability at 50 uM pretreated for 3 hrs followed by amyloid beta(1-42) challenge measured after 24 hrs by MTT assay (reference value: 37.53 +/- 1.4 %); assay type: functional; settings: read-out: Activity
[17] = tested on: SH-SY5Y; test: Neuroprotective activity against amyloid beta (1 to 42 residues) induced cytotoxicity in human SH-SY5Y cells assessed as increase in cell viability pretreated for 3 hrs followed by amyloid beta (1 to 42 residues) challenge measured after 24 hrs by MTT assay; assay type: functional, cell-based
[18] = Metal chelating activity assessed as compound-Zn2+ complex formation at 20 uM in presence of ZnCl2 after 1 hr by UV-visible spectrophotometric analysis
[19] = tested on: SH-SY5Y; test: Neuroprotective activity against H2O2-induced cytotoxicity in human SH-SY5Y cells assessed as cell viability at 50 uM pretreated for 3 hrs followed by H2O2 challenge measured after 24 hrs by MTT assay (reference value: 42.69 +/- 0.8%); assay type: functional; settings: read-out: Activity
[20] = tested on: SH-SY5Y; test: Neuro-antioxidant activity against H2O2-induced oxidative stress in human SH-SY5Y cells assessed as intracellular ROS generation at 20 uM preincubated for 6 hrs followed by H2O2 challenge for 24 hrs by DCFH-DA staining-based fluorescence assay (reference value: 119.61 +/- 5.269%); assay type: functional
[21] = tested on: SH-SY5Y; test: Neuroprotective activity against amyloid beta (1 to 42 residues) induced cytotoxicity in human SH-SY5Y cells assessed as cell viability at 30 uM pretreated for 3 hrs followed by amyloid beta(1-42) challenge measured after 24 hrs by MTT assay (reference value: 37.53 +/- 1.4 %); assay type: functional; settings: read-out: Activity
[22] = tested on: SH-SY5Y; test: Neuroprotective activity against H2O2-induced cytotoxicity in human SH-SY5Y cells assessed as increase in cell viability pretreated for 3 hrs followed by H2O2 challenge measured after 24 hrs by MTT assay; assay type: functional, cell-based
[23] = tested on: PC-12; test: cells; assay type: functional; settings: Rattus norvegicus; remark: listed apart in the source
[24] = tested on: SH-SY5Y; test: Neuro-antioxidant activity against H2O2-induced oxidative stress in human SH-SY5Y cells assessed as intracellular ROS generation at 10 uM preincubated for 6 hrs followed by H2O2 challenge for 24 hrs by DCFH-DA staining-based fluorescence assay (reference value: 119.61 +/- 5.269%); assay type: functional
[25] = tested on: SH-SY5Y; test: Neuro-antioxidant activity in human SH-SY5Y cells assessed as H2O2-induced increase in intracellular ROS generation at 50 uM preincubated for 6 hrs followed by H2O2 challenge for 24 hrs by DCFH-DA staining-based fluorescence assay relative to control (reference value: 119.61 +/- 5.269%); assay type: functional
[26] = tested on: SH-SY5Y; test: Neuroprotective activity against amyloid beta (1 to 42 residues) induced cytotoxicity in human SH-SY5Y cells assessed as cell viability at 10 uM pretreated for 3 hrs followed by amyloid beta(1-42) challenge measured after 24 hrs by MTT assay (reference value: 37.53 +/- 1.4%); assay type: functional; settings: read-out: Activity
[27] = Metal chelating activity assessed as compound-Fe2+ complex formation at 20 uM in presence of FeSO4 after 1 hr by UV-visible spectrophotometric analysis
[28] = tested on: PC-12; test: cells; assay type: functional; settings: Rattus norvegicus; remark: listed apart in the source
[29] = Metal chelating activity assessed as mole fraction of compound required to show 1:1 stoichiometry for compound-Cu2+ complex at 20 uM after 1 hr by UV-Vis absorption spectrophotometric method
[30] = n-Octanol-phosphate buffer partition co-efficient, log P of compound at pH 7.4 incubated for 48 hrs by UV spectrophotometry-based shake-flask method; assay type: physicochemical
[31] = tested on: PC-12; test: cells; assay type: functional; settings: Rattus norvegicus; remark: listed apart in the source

Q: For `O=c1c2cc(NS(=O)(=O)c3ccccc3OC(F)(F)F)ccc2nc2n1CCc1c-2[nH]c2ccccc12`, which viability at 1 µM [1] is on record?
A: 44.3%

Q: What about the viability at 10 µM [2] of the same compound?
A: 53.9%

Q: And the Activity [3]?
A: 83.17%

Q: And the Activity [4]?
A: Active

Q: What about the Activity [5] of the same compound?
A: inactive

Q: And the viability at 30 µM [6]?
A: 59.9%

Q: What about the Activity [7] of the same compound?
A: Dose-dependent effect

Q: And the IC50 [8]?
A: > 100 µM

Q: What about the IC50 [9] of the same compound?
A: 3.6 µM

Q: And the inhibition [10]?
A: Active

Q: What about the Activity [11] of the same compound?
A: inactive

Q: And the inhibition [12]?
A: Active

Q: What about the Activity [13] of the same compound?
A: inactive

Q: What about the Activity [14] of the same compound?
A: 84.23%

Q: What about the viability at 30 µM [15] of the same compound?
A: 61.7%

Q: And the viability at 50 µM [16]?
A: 64.2%

Q: What about the Activity [17] of the same compound?
A: Dose-dependent effect

Q: And the Activity [18]?
A: inactive

Q: And the viability at 50 µM [19]?
A: 61.9%

Q: And the Activity [20]?
A: 105.494%

Q: And the viability at 30 µM [21]?
A: 57.6%

Q: And the Activity [22]?
A: Dose-dependent effect

Q: And the viability at 5 µM [23]?
A: 45.3%

Q: What about the Activity [24] of the same compound?
A: 82.464%

Q: What about the Activity [25] of the same compound?
A: 98.502%

Q: And the viability at 10 µM [26]?
A: 47.9%

Q: And the Activity [27]?
A: inactive

Q: What about the viability at 50 µM [28] of the same compound?
A: 63.8%

Q: And the Activity [29]?
A: 1.1 molar ratio

Q: What about the logD at 48 h [30] of the same compound?
A: 3.62

Q: And the viability at 10 µM [31]?
A: 59.7%
